Patent US20240425523A1, “Compounds for the Degradation of EGFR Kinase” (Beigene Switzerland GMBH, priority 2023, published 2024)

What was measured:
Format in all cases: cell-based
[1] = target: T1, p-EGFR L858R (BaF3-L858R cells) (Homo sapiens, UniProt P00533, L858R); test: Cell p-EGFR inhibition assay, HTRF, BaF3-L858R cells; details: 16 h treatment; for Imax (%): maximum percentage of pEGFR inhibition; for IC50: pEGFR inhibition
T1 construct: host or cells: BaF3
Method: BaF3-L858R (abbv. L858R) cell were purchased from Kangyuan Bochuang Biotechnology (Beijing) Co., Ltd.
(§1) H1975-#23 and BaF3-L858R cells are treated with compounds diluted in 0.1% DMSO cell culture medium on day 2, incubate for 16 h, 37° C., 5% CO2. the final concentration of compounds in all assay is start with 10 uM, 5-fold dilution, total 8 doses were included.
(§2) After 16 h treatment, for H1975-#23 cells, add 50 ul HTRF 1× lysis buffer to each well; for BaF3-L858R cells, add 20 μl 4× lysis buffer to each well; seal the plate and incubate 1 hour at room temperature on a plate shaker; Once the cells are lysed, 16 μL of cell lysate are transferred to a PE 384-well HTRF detection plate; 4 μL of pre-mixed HTRF antibodies are added to each well; Cover the plate with a plate sealer, spin 1000 rpm for 1 min, Incubate overnight at room temperature; Read on BMG PheraStar with HTRF protocol (337 nm-665 nm-620 nm).
(§3) High control=Cell group with added DMSO and without compound, indicating microplate readings without p-EGFR inhibited.
(§4) Imax is the maximum percentage of inhibition.
(§5) The IC50 value of a compound can be obtained by fitting the following equation.
(§6) Wherein, X and Y are known values, and IC50, Hillslope, Top and Bottom are the parameters obtained by fitting with software. […] The experimental data were fitted by calculating and analyzing with Dotmatics data analysis software.

[2] = target: T2, EGFR L858R (BaF3-L858R cells) (Homo sapiens, UniProt P00533, L858R); test: Cell degradation of EGFR, HTRF assay, BaF3-L858R cells; details: 16 h treatment; for DC50: EGFR degradation; for Dmax: maximum percentage of degradation
T2 construct: host or cells: BaF3
In short: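 EGFR L858R levels measured by HTRF antibody pair in lysed BaF3-L858R cells after 16 h compound exposure (8-point 5-fold series from 10 uM final, 37° C). Degradation is relative to DMSO-only cells; DC50 fitted with Hill equation, Dmax taken as the largest percent loss.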

[3] = target: p-EGFR Del19/C797S (H1975-clone #23 cells) (Homo sapiens, UniProt P00533); test: Cell p-EGFR inhibition assay, HTRF, H1975-clone#23 (DEL19/C797S) cells; details: 16 h treatment; for Imax (%): maximum percentage of pEGFR inhibition; for IC50: pEGFR inhibition
Method: The EGFR over-expressed cells then underwent knockout, in which the EGFR targeting sgRNA was designed to only target the endogenous EGFR copies and preserve the exogenous EGFR copies. Followed by the knockout, the edited H1975 cells were seeded in 96 well plates at the concentration of 1 cell/well, cultured for about 2 weeks to allow single clones formation. The formed clones were screened by DNA sequencing and whole exon sequencing analysis for the desired edition.
as §1, §2, §3, §4, §5, §6

[4] = target: T3, EGFR-L858R/C797S (H1975-clone #8 cells) (Homo sapiens, UniProt P00533, C797S/L858R); test: Cell degradation of EGFR, HTRF assay, H1975-clone#8 (L858R/C797S) cells; details: 16 h treatment; for DC50: EGFR degradation; for Dmax: maximum percentage of degradation
T3 construct: expressed in transfected cells; host or cells: H1975 (endogenous EGFR knocked out, clone #8)

Imax (%) [1]	IC50 [1]	DC50 [2]	Dmax [2]	Imax (%) [3]	IC50 [3]	DC50 [4]	Dmax [4]	Compound
99.16%	13.3 nM	2.04 nM	83.3%	102.92%	1.44 nM	1.49 nM	73.7%	Cc1cc2cc(n1)-c1cnn(C)c1OC[C@H]1CCC(C1)CN1/C(=N/C2=O)Nc2ccc(N3CC4(CCN(C5CN(c6cc(F)c([C@H]7CCC(=O)NC7=O)c(F)c6)C5)CC4)C3)cc21 [Example 126, (R)-3-(4-(3-(2-((7^1R,7^3S,E)-1^1,2^6-dimethyl-3-oxo-5^2,5^3-dihydro-1^1H,5^1H-9-oxa-4-aza-5(2,1)-benzo[d]imidazola-2(2,4)-pyridina-1(4,5)-pyrazola-7(1,3)-cyclopentanacyclononaphane-5^6-yl)-2,7-diazaspiro[3.5]nonan-7-yl)azetidin-1-yl)-2,6-difluorophenyl)piperidine-2,6-dione]
95%	4.4 nM	4.1 nM	83.2%	100.5%	2 nM	3.7 nM	86.9%	COC[C@H]1CN(c2ccc3c(c2)N2CC4CC[C@H](COc5c(c(C(F)F)nn5C)-c5cc(cc(C)n5)C(=O)/N=C/2N3)C4)CCN1C1CCN(c2cc(F)c([C@H]3CCC(=O)NC3=O)c(F)c2)CC1 [Example 104, (R)-3-(4-(4-((R)-4-((7^1R,7^3S,E)-1^3-(difluoromethyl)-1^1,2^6-dimethyl-3-oxo-5^2,5^3-dihydro-1^1H,5^1H-9-oxa-4-aza-5(2,1)-benzo[d]imidazola-2(2,4)-pyridina-1(4,5)-pyrazola-7(1,3)-cyclopentanacyclononaphane-5^6-yl)-2-(methoxymethyl)piperazin-1-yl)piperidin-1-yl)-2,6-difluorophenyl)piperidine-2,6-dione]
103%	2.8 nM	0.94 nM	88.7%	101.5%	0.3 nM	0.87 nM	78.6%	COC[C@H]1CN(c2ccc3c(c2)N2C[C@@H]4CC[C@H](COc5c(cnn5C)-c5cc(cc(C)n5)C(=O)/N=C/2N3)C4)CCN1C1CCN(c2ccc(C3CCC(=O)NC3=O)nc2C)CC1 (stereo partly drawn) [Example 65, 3-(5-(4-((R)-4-((7^1R,7^3S,E)-1^1,2^6-dimethyl-3-oxo-5^2,5^3-dihydro-1^1H,5^1H-9-oxa-4-aza-5(2,1)-benzo[d]imidazola-2(2,4)-pyridina-1(4,5)-pyrazola-7(1,3)-cyclopentanacyclononaphane-5^6-yl)-2-(methoxymethyl)piperazin-1-yl)piperidin-1-yl)-6-methylpyridin-2-yl)piperidine-2,6-dione]
90.34%	< 0.128 nM	1.83 nM	90.9%	99.96%	1.44 nM	1.13 nM	93.9%	Cc1cc2cc(n1)-c1c(C)nn(C)c1OC[C@H]1CC[C@H](C1)CN1/C(=N/C2=O)Nc2ccc(N3CCN(C4CCN(c5cc(F)c([C@H]6CCC(=O)NC6=O)c(F)c5)CC4)C[C@@H]3C)cc21 [Example 195, (R)-3-(2,6-difluoro-4-(4-((S)-3-methyl-4-((7^1R,7^3S,E)-1^1,1^3,2^6-trimethyl-3-oxo-5^2,5^3-dihydro-1^1H,5^1H-9-oxa-4-aza-5(2,1)-benzo[d]imidazola-2(2,4)-pyridina-1(4,5)-pyrazola-7(1,3)-cyclopentanacyclononaphane-5^6-yl)piperazin-1-yl)piperidin-1-yl)phenyl)piperidine-2,6-dione]
93.9%	10.1 nM	3.68 nM	82.7%	100.1%	0.7 nM	4.09 nM	85.2%	Cc1cc2cc(n1)-c1cnn(C)c1OC[C@H]1CCC(C1)CN1/C(=N/C2=O)Nc2ccc(N3CCN([C@@H]4CCN(c5ccc(C6CCC(=O)NC6=O)nc5C)CC4(F)F)CC3)cc21 (stereo partly drawn) [Example 105, 3-(5-((R)-4-(4-((7^1R,7^3S,E)-1^1,2^6-dimethyl-3-oxo-5^2,5^3-dihydro-1^1H,5^1H-9-oxa-4-aza-5(2,1)-benzo[d]imidazola-2(2,4)-pyridina-1(4,5)-pyrazola-7(1,3)-cyclopentanacyclononaphane-5^6-yl)piperazin-1-yl)-3,3-difluoropiperidin-1-yl)-6-methylpyridin-2-yl)piperidine-2,6-dione]
97.1%	14.9 nM	1.11 nM	78%	100%	0.6 nM	0.92 nM	80.6%	Cc1cc2cc(n1)-c1cnn(C)c1OC[C@H]1CCC(C1)CN1/C(=N/C2=O)Nc2ccc(N3CC4(C3)CN(C3CCN(c5cc(F)c([C@H]6CCC(=O)NC6=O)c(F)c5)CC3)C4)cc21 [Example 117, (R)-3-(4-(4-(6-((7^1R,7^3S,E)-1^1,2^6-dimethyl-3-oxo-5^2,5^3-dihydro-1^1H,5^1H-9-oxa-4-aza-5(2,1)-benzo[d]imidazola-2(2,4)-pyridina-1(4,5)-pyrazola-7(1,3)-cyclopentanacyclononaphane-5^6-yl)-2,6-diazaspiro[3.3]heptan-2-yl)piperidin-1-yl)-2,6-difluorophenyl)piperidine-2,6-dione]
95.95%	5.03 nM	1.68 nM	90.6%	99.54%	1.02 nM	2.62 nM	88.5%	COC[C@@H]1CN(c2cc3c(cc2OC)N/C2=N\C(=O)c4cc(C)nc(c4)-c4c(C)nn(C)c4OC[C@H]4CC[C@H](C4)CN23)CCN1C1CCN(c2cc(F)c([C@H]3CCC(=O)NC3=O)c(F)c2)CC1 [Example 151, (R)-3-(2,6-difluoro-4-(4-((S)-4-((7^1R,7^3S,E)-5^5-methoxy-1^1,1^3,2^6-trimethyl-3-oxo-5^2,5^3-dihydro-1^1H,5^1H-9-oxa-4-aza-5(2,1)-benzo[d]imidazola-2(2,4)-pyridina-1(4,5)-pyrazola-7(1,3)-cyclopentanacyclononaphane-5^6-yl)-2-(methoxymethyl)piperazin-1-yl)piperidin-1-yl)phenyl)piperidine-2,6-dione]
91.7%	3.8 nM	1.73 nM	88.1%	99.9%	1.6 nM	5.24 nM	82.4%	COC[C@@H]1CN(c2ccc3c(c2)N2CC4CC[C@H](COc5c(c(C)nn5C)-c5cc(cc(C)n5)C(=O)/N=C/2N3)C4)CCN1C1CCN(c2cc(F)c([C@H]3CCC(=O)NC3=O)c(F)c2)CC1 [Example 80, (R)-3-(2,6-difluoro-4-(4-((S)-2-(methoxymethyl)-4-((7R,7^3S,E)-1^1,1^3,2^6-trimethyl-3-oxo-5^2,5^3-dihydro-1^1H,5^1H-9-oxa-4-aza-5(2,1)-benzo[d]imidazola-2(2,4)-pyridina-1(4,5)-pyrazola-7(1,3)-cyclopentanacyclononaphane-5^6-yl)piperazin-1-yl)piperidin-1-yl)phenyl)piperidine-2,6-dione]
